Measurements as given in paper PMC6445327, “Inhibition of the α-carbonic anhydrase from Vibrio cholerae with amides and sulfonamides incorporating imidazole moieties” (Journal of Enzyme Inhibition and Medicinal Chemistry, 2017).
Values after ≈ are worked out from the molar mass of the structure shown.

Assays:
hCA I = molecular target: T1, hCA I (Homo sapiens, UniProt P00915); test: Stopped-flow CO2 hydration assay, CA inhibition; format: biochemical
T1 construct: made in house
Method: (§1) The uncatalyzed rates were determined in the same manner and subtracted from the total observed rates. Stock solutions of inhibitor (0.01 mM) were prepared in distilled–deionised water with 5% DMSO and dilutions up to 0.1 nM were done thereafter with the assay buffer. The Inhibition constant (KI) was obtained by considering the classical Michaelis–Menten equation, which has been fitted by non-linear least squares by using PRISM 3. All CA isozymes used in the experiments were purified recombinant proteins obtained as reported earlier by our group.

hCA II = molecular target: T2, hCA II (Homo sapiens, UniProt P00918); test: Stopped-flow CO2 hydration assay, CA inhibition; format: biochemical
T2 construct: made in house
Method: as §1

[1] = molecular target: VchCA (Vibrio cholerae α-carbonic anhydrase) (Vibrio cholerae, UniProt Q9KMP6); test: biochemical
Method: as §1

[2] = tested on: two V. cholerae O1 strains (ATCC14103 and ISS-Vc014); test: In vitro antibacterial assay (broth dilution), strain not distinguished; format: cell-based, Vibrio cholerae; conditions: up to 3 mg ml^−1 (the limit of solubility)
[3] = Limit of solubility in the antibacterial test; conditions: 37 °C
[4] = tested on: V. cholerae O1 reference strain ATCC14103; test: In vitro antibacterial assay (broth dilution); format: cell-based, Vibrio cholerae; conditions: for concentration inhibiting bacterial growth: 37 °C, 18–20 h, tryptic soy broth
[5] = tested on: V. cholerae O1 strain ISS-Vc014 (multiresistant clinical isolate); test: In vitro antibacterial assay (broth dilution); format: cell-based, Vibrio cholerae; conditions: for concentration inhibiting bacterial growth: 37 °C, 18–20 h, tryptic soy broth

VchCA (Vibrio cholerae α-carbonic anhydrase), sequence (Q9KMP6 entry or part of it): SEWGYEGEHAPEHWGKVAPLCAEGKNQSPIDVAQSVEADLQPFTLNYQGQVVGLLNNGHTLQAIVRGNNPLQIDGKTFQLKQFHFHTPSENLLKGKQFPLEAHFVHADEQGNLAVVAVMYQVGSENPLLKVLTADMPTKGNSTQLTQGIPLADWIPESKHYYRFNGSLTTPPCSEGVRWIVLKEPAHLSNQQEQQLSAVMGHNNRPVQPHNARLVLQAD
T1 sequence (P00915 whole entry): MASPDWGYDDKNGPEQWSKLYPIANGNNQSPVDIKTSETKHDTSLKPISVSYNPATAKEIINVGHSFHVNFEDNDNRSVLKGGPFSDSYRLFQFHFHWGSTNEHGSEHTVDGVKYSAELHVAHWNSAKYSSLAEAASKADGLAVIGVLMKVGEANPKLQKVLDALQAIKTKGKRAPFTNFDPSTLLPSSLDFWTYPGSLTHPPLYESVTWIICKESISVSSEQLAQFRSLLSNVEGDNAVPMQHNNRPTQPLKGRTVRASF

`O=S(=O)(NCCCn1ccnc1)c1ccc(C(F)(F)F)cc1` [Compound 3, N-(3-(1H-imidazol-1-yl)propyl)-4-(trifluoromethyl)benzenesulfonamide] showed a Ki (hCA I) greater than 50000 nM, a Ki (hCA II) greater than 50000 nM and a Ki [1] of 6.4 nM. For the same compound, the melting point was 127 to 128 °C.

In the case of `O=C(NCCCn1ccnc1)c1ccc([N+](=O)[O-])cc1` [Compound 8, N-(3-(1H-imidazol-1-yl)propyl)-4-nitrobenzamide], the Ki (hCA I) is reported as 1730 nM, the Ki (hCA II) is reported as greater than 10000 nM and the Ki [1] is reported as 11 nM. The “inhibition of the bacterial growth at higher concentrations” value [2] was “partially active”, the melting point was 152 to 154 °C and the solubility [3] was 3000 µg/mL (≈ 10.9 mM).

Compound `O=[N+]([O-])c1ccc(S(=O)(=O)NCCCn2ccnc2)cc1` [Compound 4, N-(3-(1H-imidazol-1-yl)propyl)-4-nitrobenzenesulfonamide] has a Ki (hCA I) greater than 50000 nM, a Ki (hCA II) greater than 50000 nM and a Ki [1] of 6.2 nM. The melting point was 140 to 141 °C.

Compound `CS(=O)(=O)NCCCn1ccnc1` [Compound 1, N-(3-(1H-imidazol-1-yl)propyl)methanesulfonamide] has a Ki (hCA I) of 387 nM, a Ki (hCA II) greater than 10000 nM and a Ki [1] of 10.9 nM. For the same compound, the melting point was 89 to 91 °C.

Compound `O=C(NCCCn1ccnc1)c1ccc(F)cc1` [Compound 6, N-(3-(1H-imidazol-1-yl)propyl)-4-fluorobenzamide] has a Ki (hCA I) greater than 50000 nM, a Ki (hCA II) greater than 50000 nM and a Ki [1] of 9.1 nM. It also gave a melting point of 70 to 72 °C.

Work on `O=C(NCCCn1ccnc1)c1ccc(C(F)(F)F)cc1` [Compound 7, N-(3-(1H-imidazol-1-yl)propyl)-4-(trifluoromethyl)benzamide] yielded a Ki (hCA I) of 2550 nM, a Ki (hCA II) greater than 10000 nM and a Ki [1] of 10.4 nM. The “inhibition of the bacterial growth at higher concentrations” value [2] was “not active”, the melting point was 106 to 107 °C and the solubility [3] was 3000 µg/mL (≈ 10.1 mM).

With `CC1(C)S[C@@H]2[C@H](NC(=O)[C@H](N)c3ccccc3)C(=O)N2[C@H]1C(=O)O` [Ampicillin, reference compound] the “concentration inhibiting bacterial growth” value [4] was “higher than 0.01 mg ml^−1” and the “concentration inhibiting bacterial growth” value [5] was 1.0 mg/mL.

Compound `O=C(NCCCn1ccnc1)c1ccc(-c2ccccc2)cc1` [Compound 9, N-(3-(1H-imidazol-1-yl)propyl)-[1,1′-biphenyl]-4-carboxamide] has a Ki (hCA I) greater than 50000 nM, a Ki (hCA II) greater than 50000 nM and a Ki [1] of 5.4 nM.

In the case of `O=S(=O)(NCCCn1ccnc1)c1ccc(F)cc1` [Compound 2, N-(3-(1H-imidazol-1-yl)propyl)-4-fluorobenzenesulfonamide], the Ki (hCA I) is reported as 1700 nM, the Ki (hCA II) is reported as greater than 10000 nM and the Ki [1] is reported as 8.5 nM. The “activity compared to ampicillin” value [4] was “less active”, the “concentration inhibiting bacterial growth” value [4] was 2 mg/mL and the “activity compared to ampicillin” value [5] was “comparable activity”. For the same compound, the “concentration inhibiting bacterial growth” value [5] was 2 mg/mL and the melting point was 121 to 123 °C.

Compound `CC(=O)NCCCn1ccnc1` [Compound 5, N-(3-(1H-imidazol-1-yl)propyl)acetamide] has a Ki (hCA I) greater than 50000 nM, a Ki (hCA II) greater than 50000 nM and a Ki [1] of 39.2 nM.

In the case of `O=C(NCCCc1ccccc1)c1ccc([N+](=O)[O-])cc1` [Compound 10, 4-Nitro-N-(3-phenylpropyl)benzamide], the Ki (hCA I) is reported as greater than 50000 nM, the Ki (hCA II) is reported as greater than 50000 nM and the Ki [1] is reported as 7.8 nM. The melting point was 95 to 97 °C.
